Like-named read-outs stand apart in the source and are kept apart here.
Experiments:
[1] = Experimental: (§1) Samples were prepared for injection: 104 pmol anti-Ox antibody and 52 pmol Ox; 104 pmol of D1.3 control antibody and 52 pmol Ox; and 52 pmol Ox alone. Each sample was diluted to 10 μl with sterile PBS. The samples were warmed to 37° C., and then infused over 1 minute through the intraventricular or cisternal cannula in Sprague-Dawley rats. The end of the infusion was designated as time zero (0). At various timepoints, 10 μl of CSF was withdrawn. For one set of rats, the 10 μl CSF was counted directly by placing it into 5 ml of Scintiverse II and counting in a Beckman LS6500 Scintillation Counter. For another set of rats, the 10 μl CSF was diluted into 100 μl ice cold PBS and used in bound vs. free Ox experiments described below.
The rat anti-mouse kappa antibody 187.1 (obtained from American Type Culture Collection (ATCC), Manassas, Va.) (Yelton et al., Hybridoma 1:5-11 (1981)) was isolated from spent culture medium and purified by passage over a Protein A-Sepharose affinity column. Ten grams of CNBr-activated Sepharose 4 Fast Flow (Amersham Biosciences) were washed and coupled with 187.1 according to manufacturer's protocol. Two mg 187.1 per 10 g of swelled resin were used.
During the antibody buffering experiments, the CSF plus ice cold PBS sample were loaded onto the 187.1 column immediately after the dilution. Application to the column of 3 ml of PBS in 0.5 ml increments was followed by application of 3 ml of 0.2 M glycine (pH 2.5) in 0.5 ml increments. All the PBS fractions and all the glycine fractions were collected separately for each timepoint and dried down in the SpeedVac. The residue was resuspended in 150 μl PBS and then transferred to a scintillation vial with 5 ml Scintiverse II for counting.
(§2) Samples of NQ11/7.12 and Ox were prepared and infused into the cisternal cannula of Sprague-Dawley rats from Charles River Laboratories as described above for the antibody buffering protocol. Ten μl of CSF was taken from the cisterna magna at time 1, 10, 20, 30, 60, 90 and 120 minutes. The 10 μl CSF samples were either counted directly or diluted into 100 μl ice cold PBS and loaded onto a 187.1 column to separate bound and free Ox. At 24 hours and at 48 hours following the first administration, 52 pmol Ox in 10 μl total volume (diluted with sterile PBS) was infused over 1 minute through the cisterna magna cannula. Timepoints were again taken and analyzed as above.
The principle of chemical equilibrium predicts that the Ox in the CSF should partition between free and antibody-bound forms, and that the free pool should be constantly replenished, staying at a concentration near the antibody's Kd. The Ox in the CSF samples from another set of rats was separated into bound and free forms by passage over an affinity column. […] Antibody-Ox complexes bound to the immobilized rat anti-mouse kappa antibody while free Ox eluted from the column with the PBS wash (free Ox fraction).

[2] = remark: listed apart in the source
Text: Male Sprague-Dawley rats (300 g) were obtained from Zivic Laboratories, Inc. (Zelienople, Pa.). Each rat underwent surgery to place a cannula in the right lateral ventricle for injections and a second cannula in the cisterna magna for cerebral spinal fluid (CSF) sampling. Briefly, the rat was anesthetized with 2.5% isoflurane and fixed in a stereotaxic device. Normal body temperature was maintained through a heating pad. A linear midline incision exposed the frontal, parietal, and occipital bones. The lateral ventricle was located using the coordinates (1.8 mm posterior, 3.8 mm lateral, and 4 mm ventral from bregma) obtained from a stereotaxic atlas of the rat (Paxinos et al. The Rat Brain in Stereotaxic Coordinates (Academic Press 1998)). A hole was drilled through the skull, a cannula was inserted, and it was fixed to the skull using VetBond (3M, Minneapolis, Minn.) and dental cement. […] The cannula was inserted to a depth of 2 mm below the bottom of the skull and fixed with VetBond and dental cement. Screw-capped cannula dummy wires were inserted into the cannula guides to maintain a closed system. Rats were allowed to recover for at least 24 hours before ventricular injection.
For experiments for which injections and withdrawals of CSF were done via the same site in the cisterna magna (CM), male Sprague-Dawley rats (250 g) were obtained from Charles River Laboratories (Wilmington, Mass.). […] Rats were allowed to rest no more than three days after arrival prior to experimentation to reduce the risk of cannula blockage.
as §1, §2
To determine the pharmacokinetic behavior of Ox in the CSF, tritiated Ox was infused into a rat through its intraventricular cannula, and elimination of Ox was followed through CSF sampling from the cisterna magna (CM) cannula. Sampling was done from the cisterna magna because it is the largest CSF compartment. Its location between the cerebellum and the upper brain stem and its large size make it relatively easy to access CSF for sampling and scintillation counting (van den Berg et al., J. Neurosci. Methods 116:99-107 (2002)).

[3] = Ox administered alone or with D1.3
[4] = Ox alone re-administered at 24 hours and 48 hours after a single NQ11/7.12 + Ox cisternal infusion

O=C(O)CCCNC=C1N=C(c2ccccc2)OC1=O [Ox, 2-phenyl-oxazol-5-one-γ-amino butyrate]
decrease of free Ox concentration in CSF in an hour [1, 3]: 500 fold | free Ox elimination half-life in CSF [1, 3]: 0.61 min | initial free Ox concentration in CSF [1, 3]: 1.4 mM | decrease of free Ox concentration in CSF over time ([1]; Ox administered with NQ11/7.12): less than 10 fold | free Ox concentration in CSF after the decrease ([1]; Ox administered with NQ11/7.12): approximately 6 nM | free Ox elimination half-life in CSF ([1]; Ox administered with NQ11/7.12): 1.55 min | initial free Ox concentration in CSF ([1]; Ox administered with NQ11/7.12): 6e-05 mM | free Ox elimination in CSF, long term buffering [1, 4]: slower elimination profile than Ox administered with D1.3 | Ox elimination half-life from the cisterna magna ([2]; Ox alone (no NQ11/7.12), intraventricular infusion, cisternal CSF sampling): 1.2 min | total Ox pharmacokinetic lifetime in CSF, long term buffering [2, 4]: kinetic profile between the profile observed when Ox was initially administered with NQ11/7.12 and the profile of Ox when administered with D1.3 | Ox elimination half-life from CSF ([2]; Ox co-administered with control antibody D1.3, cisternal infusion): 1.0 min | Ox elimination half-life from CSF ([2]; Ox co-administered with twice the molar amount of NQ11/7.12, cisternal infusion): 10 min | time of peak Ox concentration in the cisterna magna ([2]; Ox with twice the molar amount of NQ11/7.12, intraventricular infusion): around 5 minutes | peak Ox concentration in the cisterna magna ([2]; Ox without antibody buffer, intraventricular infusion): never attained a peak concentration | increase in Ox half-life in CSF, NQ11/7.12 vs D1.3 ([2]; cisternal infusion): ten-fold

Source: patent publication US20160082105A1, “Antibody Buffering of a Ligand in Vivo” (ARROWSMITH TECHNOLOGIES CORPORATION, priority 2004, published 2016)
